Assays:
[1] = target: Disintegrin and metalloproteinase domain-containing protein 17 (Homo sapiens, UniProt P78536); experiment: TACE Inhibition Assay; conditions: pH 7.4; 22 °C
Procedure: Compounds were tested for their ability to inhibit the cleavage of the substrate by the purified enzyme in a fluorescence-based fluorescence resonance energy transfer (FRET) assay. The human TACE protein was pretreated with the inhibitors for 10 min at room temperature. The reaction was initiated by the addition of pro-TNF-alpha peptide to the TACE protein, and the increase in fluorescence was monitored at excitation of 320 nm and emission of 420 nm over a period of 10 min. Under this assay condition, the IC50 value is very close to the Ki value.

[2] = target: T1, A disintegrin and metalloproteinase with thrombospondin motifs 4 (Homo sapiens, UniProt O75173); experiment: Aggrecanase-1 Inhibition Assay; conditions: pH 7.5; 37 °C
T1 sequence (O75173 whole entry): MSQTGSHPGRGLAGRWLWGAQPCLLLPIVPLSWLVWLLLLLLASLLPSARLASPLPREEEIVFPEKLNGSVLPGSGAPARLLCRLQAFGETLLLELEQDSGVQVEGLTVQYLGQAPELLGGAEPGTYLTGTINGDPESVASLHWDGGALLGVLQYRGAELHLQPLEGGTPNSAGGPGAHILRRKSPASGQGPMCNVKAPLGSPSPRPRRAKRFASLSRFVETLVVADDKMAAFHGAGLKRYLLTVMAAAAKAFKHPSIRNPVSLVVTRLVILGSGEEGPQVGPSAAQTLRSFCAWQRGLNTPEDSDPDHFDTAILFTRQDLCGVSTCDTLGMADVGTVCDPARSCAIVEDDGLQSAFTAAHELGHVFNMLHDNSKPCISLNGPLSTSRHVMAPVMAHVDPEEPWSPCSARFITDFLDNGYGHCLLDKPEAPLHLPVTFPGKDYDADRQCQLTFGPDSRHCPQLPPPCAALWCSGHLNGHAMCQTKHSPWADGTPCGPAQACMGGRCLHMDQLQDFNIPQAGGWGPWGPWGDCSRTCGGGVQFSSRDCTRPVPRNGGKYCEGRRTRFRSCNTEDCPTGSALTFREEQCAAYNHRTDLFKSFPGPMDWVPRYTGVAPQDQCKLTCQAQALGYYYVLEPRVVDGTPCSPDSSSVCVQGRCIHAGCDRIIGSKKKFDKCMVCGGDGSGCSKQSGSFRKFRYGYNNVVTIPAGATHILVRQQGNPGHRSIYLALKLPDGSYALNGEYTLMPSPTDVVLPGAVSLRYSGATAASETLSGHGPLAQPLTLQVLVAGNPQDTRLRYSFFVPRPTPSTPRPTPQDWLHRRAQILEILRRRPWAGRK
Procedure: The recombinant Agg-1 proteins pretreated with the various concentrations of the compound for 10 to 15 min. The reaction was initiated by addition of the WAAG-3R substrate at a final concentration of 25 uM. The reaction is monitored at excitation of 340 nm and emission of 420 nm over a period of 30 min in a fluorimeter (GeminiXS; Molecular Devices Corp., Sunnyvale, CA).

[3] = target: 72 kDa type IV collagenase (Homo sapiens, UniProt P08253); experiment: MMP Inhibition Assay; conditions: pH 7.4; 22 °C
Sequence of 72 kDa type IV collagenase (P08253 whole entry): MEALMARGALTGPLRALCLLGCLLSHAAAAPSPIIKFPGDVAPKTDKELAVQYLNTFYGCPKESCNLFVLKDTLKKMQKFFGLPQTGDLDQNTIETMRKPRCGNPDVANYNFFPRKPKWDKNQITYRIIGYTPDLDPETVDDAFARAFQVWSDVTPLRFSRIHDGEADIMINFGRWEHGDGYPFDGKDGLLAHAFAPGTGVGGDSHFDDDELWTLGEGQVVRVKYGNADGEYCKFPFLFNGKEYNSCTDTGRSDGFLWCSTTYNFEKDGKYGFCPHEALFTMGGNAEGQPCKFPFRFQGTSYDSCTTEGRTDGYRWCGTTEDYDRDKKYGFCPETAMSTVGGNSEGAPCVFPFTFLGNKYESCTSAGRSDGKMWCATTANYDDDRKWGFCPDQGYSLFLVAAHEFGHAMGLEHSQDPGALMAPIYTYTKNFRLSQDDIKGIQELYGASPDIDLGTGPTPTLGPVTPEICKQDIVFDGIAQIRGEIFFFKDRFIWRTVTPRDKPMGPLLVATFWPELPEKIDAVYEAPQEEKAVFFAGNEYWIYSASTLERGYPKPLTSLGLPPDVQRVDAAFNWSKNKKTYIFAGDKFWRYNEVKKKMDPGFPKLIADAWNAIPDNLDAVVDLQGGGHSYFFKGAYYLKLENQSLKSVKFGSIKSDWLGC
Procedure: (§1) A continuous assay was used in which the substrate is a synthetic peptide containing a fluorescent group (7-methoxycoumarin), which is quenched by energy transfer to a 2,4-dinitrophenyl group. […] The enzymatic reactions were initiated by adding the substrate, and the initial rate of the cleavage reaction was determined immediately after substrate addition.

[4] = target: Matrix metalloproteinase-14 (Homo sapiens, UniProt P50281); experiment: MMP Inhibition Assay; conditions: pH 7.4; 22 °C
Procedure: as §1

[5] = target: T2, Matrilysin (Homo sapiens, UniProt P09237); experiment: MMP Inhibition Assay; conditions: pH 7.4; 22 °C
T2 sequence (P09237 whole entry): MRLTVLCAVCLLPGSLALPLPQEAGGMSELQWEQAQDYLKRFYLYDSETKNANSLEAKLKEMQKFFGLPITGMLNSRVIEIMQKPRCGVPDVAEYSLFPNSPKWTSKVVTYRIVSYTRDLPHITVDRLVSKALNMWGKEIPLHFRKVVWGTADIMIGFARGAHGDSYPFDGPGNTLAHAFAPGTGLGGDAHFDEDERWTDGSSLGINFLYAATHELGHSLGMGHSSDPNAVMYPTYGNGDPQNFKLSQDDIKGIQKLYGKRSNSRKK
Procedure: as §1

[6] = target: T3, Interstitial collagenase (Homo sapiens, UniProt P03956); experiment: MMP Inhibition Assay; conditions: pH 7.4; 22 °C
T3 sequence (P03956 whole entry): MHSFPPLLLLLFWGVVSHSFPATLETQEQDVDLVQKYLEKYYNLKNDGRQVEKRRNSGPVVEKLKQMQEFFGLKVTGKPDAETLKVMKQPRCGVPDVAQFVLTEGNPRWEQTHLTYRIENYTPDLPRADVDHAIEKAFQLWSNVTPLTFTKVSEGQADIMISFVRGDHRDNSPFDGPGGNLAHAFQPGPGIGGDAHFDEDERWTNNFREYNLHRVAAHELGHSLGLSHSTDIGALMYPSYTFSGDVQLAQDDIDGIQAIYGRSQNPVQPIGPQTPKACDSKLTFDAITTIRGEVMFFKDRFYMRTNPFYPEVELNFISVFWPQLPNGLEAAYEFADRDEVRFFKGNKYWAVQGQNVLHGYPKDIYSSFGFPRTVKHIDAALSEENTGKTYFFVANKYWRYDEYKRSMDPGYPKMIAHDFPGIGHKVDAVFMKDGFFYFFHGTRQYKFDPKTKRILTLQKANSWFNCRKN
Procedure: as §1

Sequence of Disintegrin and metalloproteinase domain-containing protein 17 (P78536 whole entry, the tested form may be a part): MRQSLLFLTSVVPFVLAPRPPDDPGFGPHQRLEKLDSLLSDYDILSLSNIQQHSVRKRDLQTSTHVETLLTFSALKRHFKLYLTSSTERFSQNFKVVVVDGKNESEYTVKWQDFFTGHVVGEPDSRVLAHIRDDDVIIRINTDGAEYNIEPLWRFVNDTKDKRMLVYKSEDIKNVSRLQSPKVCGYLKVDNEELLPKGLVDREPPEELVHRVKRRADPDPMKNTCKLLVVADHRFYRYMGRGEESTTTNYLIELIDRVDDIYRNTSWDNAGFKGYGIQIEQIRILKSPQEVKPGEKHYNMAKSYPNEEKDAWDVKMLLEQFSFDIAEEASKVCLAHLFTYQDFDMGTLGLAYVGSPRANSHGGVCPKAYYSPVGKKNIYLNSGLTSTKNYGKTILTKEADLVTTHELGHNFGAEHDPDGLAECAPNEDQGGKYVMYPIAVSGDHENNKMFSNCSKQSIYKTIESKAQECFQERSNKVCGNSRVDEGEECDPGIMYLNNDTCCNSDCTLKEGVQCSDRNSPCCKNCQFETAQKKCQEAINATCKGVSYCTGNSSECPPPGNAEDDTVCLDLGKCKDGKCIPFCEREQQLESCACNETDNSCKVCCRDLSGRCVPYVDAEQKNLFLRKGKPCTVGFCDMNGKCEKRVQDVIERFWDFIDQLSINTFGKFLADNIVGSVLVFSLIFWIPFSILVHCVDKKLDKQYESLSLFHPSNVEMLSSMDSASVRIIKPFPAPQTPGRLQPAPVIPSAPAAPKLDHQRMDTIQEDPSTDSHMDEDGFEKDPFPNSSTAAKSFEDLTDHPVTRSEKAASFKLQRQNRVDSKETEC

IC50 [1]: 8.4 nM
IC50 [2]: 100 nM
IC50 [3]: 4.7 nM
IC50 [4]: 26 nM
IC50 [5]: 26 nM
IC50 [6]: 6.6 nM
SMILES: CC#CCOc1ccc(S(=O)(=O)N2CCSC(C)(C)[C@@H]2C(=O)NO)cc1 [(3S)-4-{[4-(but-2-yn-1-yloxy)benzene]sulfonyl}-N-hydroxy-2,2-dimethylthiomorpholine-3-carboxamide]
